From US20240254139A1, “FUSED ISOXAZOLYL COMPOUNDS AS KAT6A INHIBITORS” (Aurigene Oncology Limited, priority 2021, published 2024)

Target: T1, human-KAT6A (MYST domain 507-778 aa) (Homo sapiens, UniProt Q92794)
T1 construct: human-KAT6A (MYST domain 507-778 aa)
Experiment: KAT6A biochemical assay (TR-FRET)
Conditions: for inhibition at 1 µM: compound at 1 μM, percent inhibition of internal assay controls; for IC50: dose-response, sigmoidal curve fit, groups A, B, C
Source text: A TR-FRET based method was used for assaying compounds of the invention for KAT6A enzyme inhibitory activity. TR-FRET is homogeneous proximity assay where Europium-labelled anti-acetyl lysine antibody binds to the acetylated substrate labelled with biotin which in turn binds to streptavidin labelled APC fluorescence acceptor. Europium can transfer energy to APC in the complex and the interaction of two dye-labelled binding partners is detected by the energy transfer between a donor and an acceptor dye, and the subsequent light emission by the acceptor dye. KAT6A transfer an acetyl group from acetyl CoA to lysine amino acids of histones/target proteins. Typically, 5 μL of human-KAT6A (MYST domain 507-778 aa) in assay buffer (100 mM Tris HCl (pH 7.8), 15 mM NaCl, 1 mM EDTA, 0.01% Tween-20, 0.02% BSA, 1 mM DTT) is added to a 384-well plate containing 5 μL of selected test compound in final 1% DMSO, serially diluted in 1:3 in an 8-10-point titration. The selected compound of the present invention and enzyme are incubated for 30 min at room temperature. Next, 5 μL of substrate mix containing histone H4 peptide and acetyl-CoA in assay buffer is added to the plate. The final concentrations of H4 peptide and acetyl-CoA are 200 nM and 600 nM respectively. Following 30 min reaction at room temperature, 5 μL of detection mix containing Europium labelled anti-acetyl antibody and streptavidin-APC is added to the reaction wells. Plate is further incubated for 45 min at room temperature and is read in TR-FRET mode (Ex: 340 nm; Em: 615 nm and 665 nm) on a plate reader.
Selected compounds of the present invention were screened in the above-mentioned assay procedure and IC50 values were determined by fitting the dose-response data to sigmoidal curve fitting equation using Graph pad prism software V8. […]

T1 sequence (Q92794 507-778): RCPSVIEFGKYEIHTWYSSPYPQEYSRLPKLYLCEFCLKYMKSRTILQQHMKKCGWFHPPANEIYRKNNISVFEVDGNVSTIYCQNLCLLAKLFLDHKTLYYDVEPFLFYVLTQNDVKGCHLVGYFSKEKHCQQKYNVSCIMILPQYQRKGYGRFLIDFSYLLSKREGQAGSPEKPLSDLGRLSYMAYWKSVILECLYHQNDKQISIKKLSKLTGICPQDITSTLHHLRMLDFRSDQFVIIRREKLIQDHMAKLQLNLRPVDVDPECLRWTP

Compound	inhibition at 1 µM [%]	IC50 [nM]	inhibition at 10 µM (compound at 10 μM (stated in the cell), read-out: Percent Inhibition (at 10 μM)) [%]
COc1cccc(OC)c1S(=O)(=O)Nc1noc2cc(-c3ccccc3)nc(OC)c12 [Compound 3, 2,6-dimethoxy-N-(4-methoxy-6-phenylisoxazolo[4,5-c]pyridin-3-yl)benzenesulfonamide]	96	110 to 200	
COc1cccc(OC)c1S(=O)(=O)Nc1noc2cc(-c3ccccc3)n(C)c(=O)c12 [Compound 4, 2,6-dimethoxy-N-(5-methyl-4-oxo-6-phenyl-4,5-dihydroisoxazolo[4,5-c]pyridin-3-yl)benzenesulfonamide]	23		
COc1cc(-c2ccccc2)nc2onc(NS(=O)(=O)c3ccccc3-c3ccccc3)c12 [Compound 5, N-(4-methoxy-6-phenylisoxazolo[5,4-b]pyridin-3-yl)-[1,1′-biphenyl]-2-sulfonamide]	52	< 100	
COc1cccc(OC)c1S(=O)(=O)Nc1noc2cc(-c3ccccc3)cnc12 [Compound 6, 2,6-dimethoxy-N-(6-phenylisoxazolo[4,5-b]pyridin-3-yl)benzenesulfonamide]			58
COc1cc(-c2ccccc2)nc2onc(NS(=O)(=O)c3ccccc3OC(F)(F)F)c12 [Compound 7, N-(4-methoxy-6-phenylisoxazolo[5,4-b]pyridin-3-yl)-2-(trifluoromethoxy)benzenesulfonamide]	25		
COc1ccccc1S(=O)(=O)Nc1noc2nc(-c3ccccc3)cc(OC)c12 [Compound 8, 2-methoxy-N-(4-methoxy-6-phenylisoxazolo[5,4-b]pyridin-3-yl)benzenesulfonamide]	82	110 to 200	
CCOc1ccccc1S(=O)(=O)Nc1noc2nc(-c3ccccc3)cc(OC)c12 [Compound 9, 2-ethoxy-N-(4-methoxy-6-phenylisoxazolo[5,4-b]pyridin-3-yl)benzenesulfonamide]	62	> 200	
COc1cccc(OC)c1S(=O)(=O)Nc1noc2cc(-c3ccccc3)ncc12 [Compound 11, 2,6-dimethoxy-N-(6-phenylisoxazolo[4,5-c]pyridin-3-yl)benzenesulfonamide]	12		
COc1cccc(OC)c1S(=O)(=O)Nc1noc2nc(N3CCCCC3)cc(OC)c12 [Compound 12, 2,6-dimethoxy-N-(4-methoxy-6-(piperidin-1-yl)isoxazolo[5,4-b]pyridin-3-yl)benzenesulfonamide]	54		
COc1cccc(OC)c1S(=O)(=O)Nc1noc2nc(N3CCOCC3)cc(OC)c12 [Compound 14, 2,6-dimethoxy-N-(4-methoxy-6-morpholinoisoxazolo[5,4-b]pyridin-3-yl)benzenesulfonamide]	49		
COc1cccc(OC)c1S(=O)(=O)Nc1noc2nc(N3CCC(F)(F)C3)cc(OC)c12 [Compound 18, N-(6-(3,3-difluoropyrrolidin-1-yl)-4-methoxyisoxazolo[5,4-b]pyridin-3-yl)-2,6-dimethoxybenzenesulfonamide]	100	< 100	
COc1cccc(OC)c1S(=O)(=O)Nc1noc2ncncc12 [Compound 20, N-(isoxazolo[5,4-d]pyrimidin-3-yl)-2,6-dimethoxybenzenesulfonamide]	14		
COc1cccc(OC)c1S(=O)(=O)Nc1noc2cnccc12 [Compound 21, N-(isoxazolo[5,4-c]pyridin-3-yl)-2,6-dimethoxybenzenesulfonamide]	11		
COc1cccc(OC)c1S(=O)(=O)Nc1noc2nccnc12 [Compound 22, N-(isoxazolo[4,5-b]pyrazin-3-yl)-2,6-dimethoxybenzenesulfonamide]	12		
COc1cccc(OC)c1S(=O)(=O)Nc1noc2ncccc12 [Compound 24, N-(isoxazolo[5,4-b]pyridin-3-yl)-2,6-dimethoxybenzenesulfonamide]	13		
COc1cc(-c2ccccc2)nc2onc(NS(=O)(=O)c3c(F)cccc3F)c12 [Compound 25, 2,6-difluoro-N-(4-methoxy-6-phenylisoxazolo[5,4-b]pyridin-3-yl)benzenesulfonamide]	30		
COc1cc(-c2ccccc2)nc2onc(NS(=O)(=O)c3ccccc3F)c12 [Compound 26, 2-fluoro-N-(4-methoxy-6-phenylisoxazolo[5,4-b]pyridin-3-yl)benzenesulfonamide]	23		
CCc1ccc(OC)c(S(=O)(=O)Nc2noc3nc(-c4ccccc4)cc(OC)c23)c1 [Compound 33, 5-ethyl-2-methoxy-N-(4-methoxy-6-phenylisoxazolo[5,4-b]pyridin-3-yl)benzenesulfonamide]		< 100	

Continued, values first:

inhibition at 1 µM [%]	IC50 [nM]	inhibition at 10 µM (compound at 10 μM (stated in the cell), read-out: Percent Inhibition (at 10 μM)) [%]	Compound
100	< 100		COc1cccc(OC)c1S(=O)(=O)Nc1noc2nc(-c3ccccc3)cc(OC)c12 [Compound 1, 2,6-dimethoxy-N-(4-methoxy-6-phenylisoxazolo[5,4-b]pyridin-3-yl)benzenesulfonamide]
100	< 100		COc1cccc(OC)c1S(=O)(=O)Nc1noc2nc(-c3ccccc3)nc(OC)c12 [Compound 2, 2,6-dimethoxy-N-(4-methoxy-6-phenylisoxazolo[5,4-d]pyrimidin-3-yl)benzenesulfonamide]
100	< 100		COc1ccccc1-c1cc(OC)c2c(NS(=O)(=O)c3c(OC)cccc3OC)noc2n1 [Compound 10, 2,6-dimethoxy-N-(4-methoxy-6-(2-methoxyphenyl)isoxazolo[5,4-b]pyridin-3-yl)benzenesulfonamide]
97	110 to 200		COc1cccc(OC)c1S(=O)(=O)Nc1noc2nc(N3CCCC3)cc(OC)c12 [Compound 13, 2,6-dimethoxy-N-(4-methoxy-6-(pyrrolidin-1-yl)isoxazolo[5,4-b]pyridin-3-yl)benzenesulfonamide]
59	> 200		COc1cccc(OC)c1S(=O)(=O)Nc1noc2nc(N(C)C)cc(OC)c12 [Compound 15, N-(6-(dimethylamino)-4-methoxyisoxazolo[5,4-b]pyridin-3-yl)-2,6-dimethoxybenzenesulfonamide]
100	110 to 200		COc1cccc(OC)c1S(=O)(=O)Nc1noc2nc(N3CCC3)cc(OC)c12 [Compound 16, N-(6-(azetidin-1-yl)-4-methoxyisoxazolo[5,4-b]pyridin-3-yl)-2,6-dimethoxybenzenesulfonamide]
100	110 to 200		COc1cccc(OC)c1S(=O)(=O)Nc1noc2nc(N3CC(OC)C3)cc(OC)c12 [Compound 17, 2,6-dimethoxy-N-(4-methoxy-6-(3-methoxyazetidin-1-yl)isoxazolo[5,4-b]pyridin-3-yl)benzenesulfonamide]
92	110 to 200		COc1cccc(OC)c1S(=O)(=O)Nc1noc2nc(N3CCC(OC)C3)cc(OC)c12 (stereo not shown) [Compound 19, 2,6-dimethoxy-N-(4-methoxy-6-(3-methoxypyrrolidin-1-yl)isoxazolo[5,4-b]pyridin-3-yl)benzenesulfonamide]
17			COc1cccc(OC)c1S(=O)(=O)Nc1noc2nc(N(C)C3CCCCC3)cc(OC)c12 [Compound 27, N-(6-(cyclohexyl(methyl)amino)-4-methoxyisoxazolo[5,4-b]pyridin-3-yl)-2,6-dimethoxybenzenesulfonamide]
80	> 200		COc1cccc(OC)c1S(=O)(=O)Nc1noc2nc(N3CC(F)(F)C3)cc(OC)c12 [Compound 28, N-(6-(3,3-difluoroazetidin-1-yl)-4-methoxyisoxazolo[5,4-b]pyridin-3-yl)-2,6-dimethoxybenzenesulfonamide]
38			COc1ccc(CN(C)c2cc(OC)c3c(NS(=O)(=O)c4c(OC)cccc4OC)noc3n2)cc1 [Compound 29, 2,6-dimethoxy-N-(4-methoxy-6-((4-methoxybenzyl)(methyl)amino)isoxazolo[5,4-b]pyridin-3-yl)benzenesulfonamide]
56			CCN(Cc1ccc(OC)cc1)c1cc(OC)c2c(NS(=O)(=O)c3c(OC)cccc3OC)noc2n1 [Compound 30, N-(6-(ethyl(4-methoxybenzyl)amino)-4-methoxyisoxazolo[5,4-b]pyridin-3-yl)-2,6-dimethoxybenzenesulfonamide]
	< 100		COc1cccc(OC)c1S(=O)(=O)Nc1noc2nc(-c3ccsc3)cc(OC)c12 [Compound 31, 2,6-dimethoxy-N-(4-methoxy-6-(thiophen-3-yl)isoxazolo[5,4-b]pyridin-3-yl)benzenesulfonamide]
	110 to 200		COc1cccc(OC)c1S(=O)(=O)Nc1noc2nc(C3=CCCC3)cc(OC)c12 [Compound 32, N-(6-(cyclopent-1-en-1-yl)-4-methoxyisoxazolo[5,4-b]pyridin-3-yl)-2,6-dimethoxybenzenesulfonamide]
